Laboratory results published in patent US20030071268A1, “Optical data storage medium containing a diaza hemicyanine dye as the light-absorbing compound in the information layer” (priority 2001, published 2003).

Experiments:
Type in all cases: physicochemical
film appearance = assay: film appearance
Excerpt: In addition to the above-mentioned optical properties, the recordable information layer consisting of light-absorbing organic substances must have a morphology which is as amorphous as possible, in order to keep the noise signal during recording or reading as small as possible. For this purpose it is particularly preferable, when applying the substances by spin-coating from a solution or by vapour deposition and/or sublimation, to prevent crystallization of the light-absorbing substances during the subsequent top-coating with metallic or dielectric layers in vacuo.

[1] = solubility in TFP (2,2,3,3-tetrafluoropropanol)
[2] = absorption spectra measured in solution
Procedure: (§1) For a recordable optical data storage medium according to the invention which is recorded on and read using light from a blue laser, such diaza hemicyanine dyes are preferred whose absorption maximum λmax2 is in the range from 420 to 550 nm, wherein the wavelength λ½ at which the extinction on the short-wavelength slope of the absorption maximum of the wavelength λmax2 is half the extinction value at λmax2, and the wavelength λ 1/10, at which the extinction on the short-wavelength slope of the absorption maximum of the wavelength λmax2 is a tenth of the extinction value at λmax2, are preferably in each case no further than 50 nm away from each other.
as §1, with “a red” for “a blue”, “from 500” for “from 420”, “to 650” for “to 550”, “the long-wavelength” for “the short-wavelength”, “50 mn” for “50 nm”, “other. […]” for “other.”
The absorption spectra are, for example, measured in solution.

SMILES: CC(C)N(c1n[n+](C)c(/N=N/c2sc(N3CCOCC3)nc2-c2ccccc2)s1)C(C)C [Example 1]
- film appearance (film appearance): a glassy film
- Solubility [1]: > 2%
- ε ([2]; Example 1): 30100 mol⁻¹ cm⁻¹
- λmax ([2]; in methanol): 592 nm
